Like-named read-outs stand apart in the source and are kept apart here.
Experiments:
MOLM-13 cells = experiment: Cell viability assay (CellTiter-Glo) in MOLM-13 cells, alone or with gilteritinib; assay type: cell-based; details: Homo sapiens, MOLM-13 cells, three days, CellTiter-Glo
MV4;11 cells = experiment: Cell viability assay (CellTiter-Glo) in MV4;11 cells, alone or with gilteritinib; assay type: cell-based; details: Homo sapiens, MV4;11 cells, three days, CellTiter-Glo, read-out: MV4
[1] = MOLM-13, 72 h, compound alone (without gilteritinib), read-out: MOLM-13 IC50
[2] = MOLM-13, 72 h, with gilteritinib 20 nM, read-out: MOLM-13 IC50 gilteritinib
[3] = MV4-11, 72 h, compound alone (without gilteritinib), 11 IC50
[4] = MV4-11, 72 h, with gilteritinib 10 nM, 11 IC50 gilteritinib
[5] = 72 h, compound alone (without gilteritinib), read-out: MOLM-13 IC50
[6] = 72 h, with gilteritinib 20 nM, read-out: MOLM-13 IC50 gilteritinib
[7] = 72 h, compound alone (without gilteritinib), 11 IC50
[8] = 72 h, with gilteritinib 10 nM, 11 IC50 gilteritinib

| Structure (SMILES) | IC50 (MOLM-13 cells; [1]) [nM] | IC50 (MOLM-13 cells; [2]) [nM] | IC50 (MV4;11 cells; [3]) [nM] | IC50 (MV4;11 cells; [4]) [nM] | IC50 (MOLM-13 cells; [5]) [nM] | IC50 (MOLM-13 cells; [6]) [nM] | IC50 (MV4;11 cells; [7]) [nM] | IC50 (MV4;11 cells; [8]) [nM] |
| --- | --- | --- | --- | --- | --- | --- | --- | --- |
| O=C1CCC(N2C(=O)c3ccc(NCCCN4CC(n5cc(-c6cnc7ccccc7n6)cn5)C4)cc3C2=O)C(=O)N1 (centres unmarked) [GS-371, 2-(2,6-Dioxopiperidin-3-yl)-5-((3-(3-(4-(quinoxalin-2-yl)-1H-pyrazol-1-yl)azetidin-1-yl)propyl)amino)isoindoline-1,3-dione] | 100 to 1000 | 100 to 1000 | > 1000 | > 1000 | – | – | – | – |
| O=C1CCC(N2C(=O)c3ccc(NCCNc4cccc(N5CCN(c6ccccn6)CC5)c4)cc3C2=O)C(=O)N1 (centres unmarked) [GS-372, 2-(2,6-Dioxopiperidin-3-yl)-5-((2-((3-(4-(pyridin-2-yl)piperazin-1-yl)phenyl)amino)ethyl)amino)isoindoline-1,3-dione] | – | – | – | – | < 10 | < 10 | 10 to 100 | < 10 |
| O=C1CCC(N2C(=O)c3ccc(NCCNC4CC(n5cc(-c6cnc7ccccc7n6)cn5)C4)cc3C2=O)C(=O)N1 (centres unmarked) [GS-373, 2-(2,6-Dioxopiperidin-3-yl)-5-((2-((3-(4-(quinoxalin-2-yl)-1H-pyrazol-1-yl)cyclobutyl)amino)ethyl)amino)isoindoline-1,3-dione] | – | – | – | – | > 1000 | > 1000 | > 1000 | > 1000 |
| O=C1CCC(N2Cc3cc(CCCCCCn4cc(-c5cnc6ccccc6n5)cn4)ccc3C2=O)C(=O)N1 (centres unmarked) [GS-374, 3-(1-Oxo-5-(6-(4-(quinoxalin-2-yl)-1H-pyrazol-1-yl)hexyl)isoindolin-2-yl)piperidine-2,6-dione] | > 1000 | 100 to 1000 | 100 to 1000 | > 1000 | – | – | – | – |
| O=C1CCC(N2Cc3cc(CCCCCCCn4cc(-c5cnc6ccccc6n5)cn4)ccc3C2=O)C(=O)N1 (centres unmarked) [GS-375, 3-(1-Oxo-5-(7-(4-(quinoxalin-2-yl)-1H-pyrazol-1-yl)heptyl)isoindolin-2-yl)piperidine-2,6-dione] | > 1000 | 10 to 100 | 100 to 1000 | 10 to 100 | – | – | – | – |
| O=C1CCC(N2C(=O)c3ccc(NCCCCCCn4cc(-c5cnc6cccc(Cl)c6n5)cn4)cc3C2=O)C(=O)N1 (centres unmarked) [GS-376, 5-((6-(4-(8-Chloroquinoxalin-2-yl)-1H-pyrazol-1-yl)hexyl)amino)-2-(2,6-dioxopiperidin-3-yl)isoindoline-1,3-dione] | > 1000 | 10 to 100 | 100 to 1000 | 10 to 100 | – | – | – | – |
| O=C1CCC(N2C(=O)c3ccc(NCCCCCCn4cc(-c5cnc6cccc(F)c6n5)cn4)cc3C2=O)C(=O)N1 (centres unmarked) [GS-377, 2-(2,6-Dioxopiperidin-3-yl)-5-((6-(4-(8-fluoroquinoxalin-2-yl)-1H-pyrazol-1-yl)hexyl)amino)isoindoline-1,3-dione] | > 1000 | < 10 | 100 to 1000 | 10 to 100 | – | – | – | – |
| O=C1CCC(N2Cc3c(NC4CCC(Nc5cccc(N6CCC(n7cc(-c8cnc9ccccc9n8)cn7)CC6)c5)CC4)cccc3C2=O)C(=O)N1 (centres unmarked) [GS-378, 3-(1-Oxo-4-((4-((3-(4-(4-(quinoxalin-2-yl)-1H-pyrazol-1-yl)piperidin-1-yl)phenyl)amino)cyclohexyl)amino)isoindolin-2-yl)piperidine-2,6-dione] | 10 to 100 | < 10 | 10 to 100 | < 10 | – | – | – | – |
| O=C1CCC(N2C(=O)c3ccc(NCCCCNC(=O)N4CCC(n5cc(-c6cnc7ccccc7n6)cn5)CC4)cc3C2=O)C(=O)N1 (centres unmarked) [GS-379, N-(4-((2-(2,6-Dioxopiperidin-3-yl)-1,3-dioxoisoindolin-5-yl)amino)butyl)-4-(4-(quinoxalin-2-yl)-1H-pyrazol-1-yl)piperidine-1-carboxamide] | > 1000 | 10 to 100 | 100 to 1000 | 10 to 100 | – | – | – | – |
| Cc1nc(-c2cnc3ccccc3n2)cn1CCCCCCNc1ccc2c(c1)C(=O)N(C1CCC(=O)NC1=O)C2=O (centres unmarked) [GS-380, 2-(2,6-Dioxopiperidin-3-yl)-5-((6-(2-methyl-4-(quinoxalin-2-yl)-1H-imidazol-1-yl)hexyl)amino)isoindoline-1,3-dione] | 100 to 1000 | 100 to 1000 | > 1000 | > 1000 | – | – | – | – |
| O=C1CCC(N2C(=O)c3ccc(NCCCCCCn4cc(-c5cnc6cccc(N7CCOCC7)c6n5)cn4)cc3C2=O)C(=O)N1 (centres unmarked) [GS-381, 2-(2,6-Dioxopiperidin-3-yl)-5-((6-(4-(8-morpholinoquinoxalin-2-yl)-1H-pyrazol-1-yl)hexyl)amino)isoindoline-1,3-dione] | > 1000 | 10 to 100 | > 1000 | 100 to 1000 | – | – | – | – |
| O=C1CCC(N2C(=O)c3ccc(NCCCCCCn4cc(-c5cnc6cccc(C7CCOCC7)c6n5)cn4)cc3C2=O)C(=O)N1 (centres unmarked) [GS-382] | > 1000 | 10 to 100 | > 1000 | > 1000 | – | – | – | – |
| CN1CCN(c2cccc3ncc(-c4cnn(CCCCCCNc5ccc6c(c5)C(=O)N(C5CCC(=O)NC5=O)C6=O)c4)nc23)CC1 (centres unmarked) [GS-383, 2-(2,6-Dioxopiperidin-3-yl)-5-((6-(4-(8-(4-methylpiperazin-1-yl)quinoxalin-2-yl)-1H-pyrazol-1-yl)hexyl)amino)isoindoline-1,3-dione] | > 1000 | > 1000 | > 1000 | 100 to 1000 | – | – | – | – |
| O=C1CCC(N2C(=O)c3ccc(NCCCCCCn4cc(-c5cnc6cccc(N7CCNCC7)c6n5)cn4)cc3C2=O)C(=O)N1 (centres unmarked) [GS-384, 2-(2,6-Dioxopiperidin-3-yl)-5-((6-(4-(8-(piperazin-1-yl)quinoxalin-2-yl)-1H-pyrazol-1-yl)hexyl)amino)isoindoline-1,3-dione] | > 1000 | > 1000 | > 1000 | > 1000 | – | – | – | – |
| O=C1CCC(N2C(=O)c3ccc(NCCCCCCNc4ncc(-c5cnc6ccccc6n5)s4)cc3C2=O)C(=O)N1 (centres unmarked) [GS-385, 2-(2,6-Dioxopiperidin-3-yl)-5-((6-((5-(quinoxalin-2-yl)thiazol-2-yl)amino)hexyl)amino)isoindoline-1,3-dione] | 100 to 1000 | 10 to 100 | 100 to 1000 | 10 to 100 | – | – | – | – |
| O=C1CCC(N2C(=O)c3ccc(NCCCCCCc4ncc(-c5cnc6ccccc6n5)s4)cc3C2=O)C(=O)N1 (centres unmarked) [GS-386, 2-(2,6-Dioxopiperidin-3-yl)-5-((6-(5-(quinoxalin-2-yl)thiazol-2-yl)hexyl)amino)isoindoline-1,3-dione] | 10 to 100 | < 10 | 100 to 1000 | 10 to 100 | – | – | – | – |
| COc1ccc2ncc(-c3cnn(CCCCCCNc4ccc5c(c4)C(=O)N(C4CCC(=O)NC4=O)C5=O)c3)nc2c1 (centres unmarked) [GS-387, 2-(2,6-Dioxopiperidin-3-yl)-5-((6-(4-(7-methoxyquinoxalin-2-yl)-1H-pyrazol-1-yl)hexyl)amino)isoindoline-1,3-dione] | 100 to 1000 | < 10 | 100 to 1000 | 10 to 100 | – | – | – | – |
| CN1CCC(c2cccc3ncc(-c4cnn(CCCCCCNc5ccc6c(c5)C(=O)N(C5CCC(=O)NC5=O)C6=O)c4)nc23)CC1 (centres unmarked) [GS-388, 2-(2,6-Dioxopiperidin-3-yl)-5-((6-(4-(8-(1-methylpiperidin-4-yl)quinoxalin-2-yl)-1H-pyrazol-1-yl)hexyl)amino)isoindoline-1,3-dione] | > 1000 | > 1000 | > 1000 | > 1000 | – | – | – | – |
| O=C1CCC(N2C(=O)c3ccc(NCCCCCCn4cc(-c5cnc6cccc(C7CC7)c6n5)cn4)cc3C2=O)C(=O)N1 (centres unmarked) [GS-389, 5-((6-(4-(8-Cyclopropylquinoxalin-2-yl)-1H-pyrazol-1-yl)hexyl)amino)-2-(2,6-dioxopiperidin-3-yl)isoindoline-1,3-dione] | 100 to 1000 | 10 to 100 | 100 to 1000 | 10 to 100 | – | – | – | – |
| O=C1CCC(N2C(=O)c3ccc(NCCCCCNc4ncc(-c5cnc6ccccc6n5)s4)cc3C2=O)C(=O)N1 (centres unmarked) [GS-390, 2-(2,6-Dioxopiperidin-3-yl)-5-((5-((5-(quinoxalin-2-yl)thiazol-2-yl)amino)pentyl)amino)isoindoline-1,3-dione] | > 1000 | 100 to 1000 | > 1000 | 100 to 1000 | – | – | – | – |
| COc1cccc2ncc(-c3cnn(CCCCCCNc4ccc5c(c4)C(=O)N(C4CCC(=O)NC4=O)C5=O)c3)nc12 (centres unmarked) [GS-391, 2-(2,6-Dioxopiperidin-3-yl)-5-((6-(4-(8-methoxyquinoxalin-2-yl)-1H-pyrazol-1-yl)hexyl)amino)isoindoline-1,3-dione] | > 1000 | 100 to 1000 | > 1000 | > 1000 | – | – | – | – |
| O=C1CCC(N2C(=O)c3ccc(NCC4CC(n5cc(-c6cnc7cccc(N8CCOCC8)c7n6)cn5)C4)cc3C2=O)C(=O)N1 (centres unmarked) [GS-392, 2-(2,6-Dioxopiperidin-3-yl)-5-(((3-(4-(8-morpholinoquinoxalin-2-yl)-1H-pyrazol-1-yl)cyclobutyl)methyl)amino)isoindoline-1,3-dione] | > 1000 | > 1000 | > 1000 | 100 to 1000 | – | – | – | – |
| O=C1CCC(N2C(=O)c3ccc(NCCCCCCn4cc(-c5cnc6cccc(C7CCNCC7)c6n5)cn4)cc3C2=O)C(=O)N1 (centres unmarked) [GS-393, 2-(2,6-Dioxopiperidin-3-yl)-5-((6-(4-(8-(piperidin-4-yl)quinoxalin-2-yl)-1H-pyrazol-1-yl)hexyl)amino)isoindoline-1,3-dione] | > 1000 | > 1000 | > 1000 | > 1000 | – | – | – | – |

From patent publication US20240050428A1 (Cullgen (Shanghai), Inc., priority 2020, published 2024)
